In US20250340516A1, “Isoquinolinones as Modulators of POLRMT” (Pretzel Therapeutics, Inc., priority 2024, published 2025):
pIC50: −log10 of the molar value.

molecular target: POLRMT (Homo sapiens (Human), UniProt O00411); test: homogeneous TR-FRET assay of POLRMT inhibition (mitochondrial transcription, 407 bp RNA product); format: biochemical; conditions: 7.5 nM POLRMT, 15 nM TFB2M, 30 nM TFAM, 0.5 nM DNA template, 500 μM NTPs, 37° C., 60 minutes, * = aggregation of data sets, read-out: IC50 values for isoquinolinone compounds
Description: The inhibitory activity of the compounds of the present invention against POLRMT were determined by assays based on Bergbrede, T., et al., “An adaptable high-throughput technology enabling the identification of specific transcription modulators,” SLAC Discov., 22, 378-386 (2017).
The ability of some compounds of the present invention to inhibit POLRMT were determined in a homogeneous TR-FRET Assay using high-throughput screening in a 384-well plate format. This method is used to monitor the activity of mitochondrial transcription through measurement of its product, a 407 bp long RNA transcript. Detection of the product is facilitated by hybridization of two DNA-oligonucleotide probes to specific and adjacent sequences within the RNA product sequence. Upon annealing of the probes, two fluorophores are coupled directly to an acceptor nucleotide probe (ATTO647, 5′), or introduced via a coupled streptavidin with a biotinylated donor nucleotide probe (Europium cryptate) that is brought into sufficient proximity to serve as a fluorescence-donor-acceptor pair. Thus, a FRET signal at 665 nm is generated upon excitation at 340 nm.
Proteins used as transcription factors (POLRMT: NP_005026.3, TFAM: NP_003192.1, TFB2M: NP_071761.1) are diluted from their stocks to working concentrations of 1 μM, 20 μM and 4 μM respectively, in a dilution buffer containing 20 mM Tris-HCl (pH 8.0), 200 mM NaCl, 10% (v/v) glycerol, 1 mM Dithiothreitol (DTT), 0.5 mM EDTA.
DNA template is a pUC18 plasmid with the mitochondrial light strand promotor sequence (1-477) cloned between HindIII and BamHI sites. The DNA template is restriction linearized proximal to the promotor 3′-end (pUC-LSP).
The reaction mixture (10 uL) containing 7.5 nM POLRMT, 15 nM of TFB2M, 30 nM of TFAM, 0.5 nM of DNA template and 500 μM nucleotide triphosphate mix (NTPs) in a reaction buffer (containing 10 mM Tris-HCl (pH 7.5), 10 mM MgCl2, 40 mM NaCl, 10 mM DTT, 0.005% (w/v) Tween-20, 160 units/ml Rnase inhibitor and 0.1 mg/mL BSA) are dispensed to compounds in microplates, using a Thermo Multidrop® dispenser, and incubated at 37° C. in a VWR INCU-Line incubator for 60 minutes after mixing. No nucleotide triphosphate mix is added to negative control samples. Microplates with compounds to be tested in the assay are prepared from 10 mM compound stocks in 100% DMSO, equal amounts of DMSO without any compound are added to positive control and negative control samples.
During the incubation, a mix of the detection reagents is prepared in a buffer such that the enzymatic reaction is terminated due to chelating of Mg-ions and increased ionic strength, containing 50 mM Tris-HCl (pH 7.5), 700 mM NaCl, 20 mM EDTA, and 0.01% (w/v) Tween-20. Europium-streptavidin is pre-incubated with a 200-fold molar excess of a random sequence oligonucleotide to block unspecific binding of oligo, for two hours at ambient temperature in the dark. Afterwards, the blocked Europium-streptavidin is kept on ice until use.
At the end of the enzymatic reaction time, 5 μL detection oligo mix in the detection buffer is added, and assay plates are mixed and kept at ambient temperature for one hour, protected from light. The concentration of the Acceptor nucleotide oligo (e.g., ATTO647N-5′-[…]-3′ (SEQ ID NO: 1)) and Donor nucleotide oligo (e.g., bio-5′-AACACATCTCT(-bio)GCCAAACCCCA-bio-3′ (SEQ ID NO: 2)) in each assay well is 1 nM, and 3 nM, respectively.
After incubation with oligo mix, 5 μL of pre-blocked Europium-streptavidin reagent is dispensed to each assay well, assay plates are again mixed and kept at ambient temperature for one hour, protected from light.
The generated signal is measured with BMG Pherastar microtiter plate reader with a TRF light unit, using excitation at 340 nm, an integration time of 200 μs, and a delay time of 100 μs, before detection at 620 nm and 665 nm. The ratio of donor- and acceptor-fluorescence is used as a measure of the generated transcript product (i.e. enzymatic activity).

POLRMT, sequence (O00411 42-1230): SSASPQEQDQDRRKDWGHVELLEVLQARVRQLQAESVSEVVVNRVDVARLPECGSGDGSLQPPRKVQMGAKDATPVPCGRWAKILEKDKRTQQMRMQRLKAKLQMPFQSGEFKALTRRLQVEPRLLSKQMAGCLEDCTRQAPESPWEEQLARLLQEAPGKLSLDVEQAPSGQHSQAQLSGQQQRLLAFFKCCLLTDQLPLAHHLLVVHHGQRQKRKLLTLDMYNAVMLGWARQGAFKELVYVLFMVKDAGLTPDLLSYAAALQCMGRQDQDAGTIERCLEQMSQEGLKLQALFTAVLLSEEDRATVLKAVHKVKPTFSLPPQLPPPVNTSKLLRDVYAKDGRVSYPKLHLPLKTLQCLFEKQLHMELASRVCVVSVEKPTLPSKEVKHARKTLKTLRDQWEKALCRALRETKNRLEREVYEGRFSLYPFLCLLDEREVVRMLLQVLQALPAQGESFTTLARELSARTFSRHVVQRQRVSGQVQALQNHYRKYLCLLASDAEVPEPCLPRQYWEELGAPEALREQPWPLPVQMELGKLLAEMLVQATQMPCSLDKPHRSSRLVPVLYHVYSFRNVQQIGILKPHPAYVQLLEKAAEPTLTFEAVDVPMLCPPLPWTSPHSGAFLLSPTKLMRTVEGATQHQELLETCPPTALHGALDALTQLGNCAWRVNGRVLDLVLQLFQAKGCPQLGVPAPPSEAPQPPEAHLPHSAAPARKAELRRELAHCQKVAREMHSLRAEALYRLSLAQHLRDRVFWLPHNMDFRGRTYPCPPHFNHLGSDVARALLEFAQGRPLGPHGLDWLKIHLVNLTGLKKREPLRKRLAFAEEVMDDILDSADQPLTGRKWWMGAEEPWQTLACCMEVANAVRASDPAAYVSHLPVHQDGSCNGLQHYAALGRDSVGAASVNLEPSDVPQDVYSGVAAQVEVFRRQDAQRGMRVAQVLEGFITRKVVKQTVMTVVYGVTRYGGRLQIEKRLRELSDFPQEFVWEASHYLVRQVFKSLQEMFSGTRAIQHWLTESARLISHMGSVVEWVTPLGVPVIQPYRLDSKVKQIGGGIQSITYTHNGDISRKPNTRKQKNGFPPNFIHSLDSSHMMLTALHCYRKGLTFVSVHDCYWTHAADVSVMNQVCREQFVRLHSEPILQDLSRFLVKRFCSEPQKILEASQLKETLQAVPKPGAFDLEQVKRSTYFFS

pIC50	Compound
4.43	CC(=O)N1CCN(C[C@H](C)Oc2ccc3c(-c4ccccc4C)c[nH]c(=O)c3c2)CC1 [Example 55, (S)-7-((1-(4-acetylpiperazin-1-yl)propan-2-yl)oxy)-4-(o-tolyl)isoquinolin-1(2H)-one]
5.70	Cc1ccccc1-c1c[nH]c(=O)c2cc(O[C@H](C)C(=O)N3CCCCC(N(C)C)C3)ccc12 (single isomer, unassigned) [Example 76]
7.15	Cc1ccccc1-c1c[nH]c(=O)c2cc(O[C@H](C)C(=O)N3CCCC(CC(=O)O)C3)ccc12 (single isomer, unassigned) [Example 13]
6.00	Cc1c(F)cccc1-c1c[nH]c(=O)c2cc(N(C)CC(=O)NCCO)ccc12 [Example 70, 2-((4-(3-fluoro-2-methylphenyl)-1-oxo-1,2-dihydroisoquinolin-7-yl)(methyl)amino)-N-(2-hydroxyethyl)acetamide]
7.00	Cc1ccccc1-c1c[nH]c(=O)c2cc(O[C@H](C)C(=O)NC3(C(N)=O)CC3)ccc12 [Example 62, (R)-1-(2-((1-oxo-4-(o-tolyl)-1,2-dihydroisoquinolin-7-yl)oxy)propanamido)cyclopropane-1-carboxamide]
7.22	C[C@@H](Oc1ccc2c(-c3ccc(F)cc3Cl)c[nH]c(=O)c2c1)C(=O)N1CCCC(C(C)(C)C(=O)O)C1 (single isomer, unassigned) [Example 50]
5.10	C[C@@H](C(=O)N1CCC[C@H](C(=O)O)C1)N(C)c1ccc2c(-c3ccc(F)cc3Cl)c[nH]c(=O)c2c1 (single isomer, unassigned) [Example 5]
7.10	[2H]C([2H])([2H])c1ccccc1-c1c[nH]c(=O)c2cc(O[C@H](C)C(=O)N3CCN(C(N)=O)CC3)ccc12 [Example 74, (R)-4-(2-((4-(2-(methyl-d3)phenyl)-1-oxo-1,2-dihydroisoquinolin-7-yl)oxy)propanoyl)piperazine-1-carboxamide]
7.22	Cc1ccccc1-c1c[nH]c(=O)c2cc(O[C@H](C)C(=O)N3CC(C(=O)O)CC(F)(F)C3)ccc12 (single isomer, unassigned) [Example 1]
6.52	C[C@@H](Oc1ccc2c(-c3ccc(F)cc3Cl)c[nH]c(=O)c2c1)C(=O)N1CCCC(C(C)(C)C(=O)O)C1 (single isomer, unassigned) [Example 51]
6.52	COCCN1CCN(C(=O)[C@@H](C)Oc2ccc3c(-c4ccccc4C)c[nH]c(=O)c3c2)CC1=O [Example 23, (R)-7-((1-(4-(2-methoxyethyl)-3-oxopiperazin-1-yl)-1-oxopropan-2-yl)oxy)-4-(o-tolyl)isoquinolin-1(2H)-one]
< 4.00	N#CCOc1ccc2c(-c3ccccc3OC(F)(F)F)c[nH]c(=O)c2c1 [Example 49, 2-((1-oxo-4-(2-(trifluoromethoxy)phenyl)-1,2-dihydroisoquinolin-7-yl)oxy)acetonitrile]
7.40	Cc1ccccc1-c1c[nH]c(=O)c2cc(O[C@H](C)C(=O)N3CCCC(C4(C(N)=O)CC4)C3)ccc12 (single isomer, unassigned) [Example 41]
6.52	N#CCOc1ccc2c(-c3ccccc3CCO)c[nH]c(=O)c2c1 [Example 42, 2-((4-(2-(2-hydroxyethyl)phenyl)-1-oxo-1,2-dihydroisoquinolin-7-yl)oxy)acetonitrile]
8.05	Cc1ccccc1-c1c[nH]c(=O)c2cc(O[C@H](C)C(=O)N3CCC[C@H](CC(N)=O)C3)ccc12 [Example 38, 2-((R)-1-((R)-2-((1-oxo-4-(o-tolyl)-1,2-dihydroisoquinolin-7-yl)oxy)propanoyl)piperidin-3-yl)acetamide]
7.00	CCCC1(C(=O)O)CCCN(C(=O)[C@@H](C)Oc2ccc3c(-c4ccccc4C)c[nH]c(=O)c3c2)C1 (single isomer, unassigned) [Example 66]
6.70	C[C@@H](Oc1ccc2c(-c3ccc(F)cc3Cl)c[nH]c(=O)c2c1)C(=O)N1CC(C(N)=O)CC(F)(F)C1 (single isomer, unassigned) [Example 9]
